This test concerns formalin-induced nociception. Nature of the test: Formalin test, rat (second/late phase). The test is classed as in vivo. Conditions: i.p., 21.5 mg/kg, late phase. The procedure: Experiments to determine the antinociceptive activity of the compounds according to the invention of Formula I were carried out in the formalin test on male rats (Sprague-Dawley, 150-170 g).
In the formalin test, the first (early) phase (0-15 min after formalin injection) was distinguished from the second (late) phase (15-60 min after formalin injection) (D. Dubuisson, S. G. Dennis, Pain 4, 161-174 (1977)). The early phase, as a direct reaction to the formalin injection, represents a model for acute pain while the late phase is considered as a model for persistent (chronic) pain (T. J. Coderre, J. Katz, A. L. Vaccarino, R. Melzack, Pain, Vol. 52, p. 259,1993).
The compounds according to the invention were investigated in the second phase of the formalin test to obtain information about the effects of substances in chronic/inflammatory pain.
A nociceptive reaction was induced in freely moving experimental animals by a single subcutaneous formalin injection (50 μl, 5%) into the dorsal side of the back right paw, the nociceptive reaction being portrayed by the following behavioral parameters: lifting and holding the respective paw (Score 1), shaking and twitching (Score 2), licking and biting (Score 3). The different behavioral patterns triggered by the formalin injection were recorded continuously by observing the animals in the late phase of the formalin test and were weighted differently in an evaluation. Normal behavior in which the animal loads all four paws uniformly was recorded as score 0. The moment of administration prior to the formalin injection was selected according to the method of administration of the compounds according to the invention (intraperitoneal: 15 min, intravenous: 5 min). The described behavioral patterns (Score 1 to 3) in the animals are reduced and possibly even eliminated after injection of substances which have an antinociceptive effect in the formalin test. A comparisom was made with control animals which had received vehicles (solvents) prior to formalin administration. The nociceptive behavior was calculated as a so-called pain rate (PR). The various behavioral parameters received a different weighting (Factor 0, 1, 2, 3). Calculation took place at partial intervals of 3 min according to the following formula:
Substance and vehicle groups include n=10 animals in each case. The effect of the substance was determined as a percentage change versus control on the basis of the PR calculations. The ED50 calculations were made by regression analysis.

Consider `O=C(O)C1Nc2cc(Cl)cc(Cl)c2C2C=CCC12` (stereo not shown) [Example 2, 7,9-dichloro-3a,4,5,9b-tetrahydro-3H-cyclopenta[c]quinoline-4-carboxylic Acid], for which the “% inhibition of formalin-induced nociception” value turned out to be 64.5%.

The values are drawn from patent publication US6699877B2 (Gruenenthal GmbH, priority 2000, dated 2004).
